The values below come from patent publication US8778966B2, “Quinolinone derivatives as PARP and tank inhibitors” (Janssen Pharmaceutica, NV, priority 2007, dated 2014).

Each structure is given as a SMILES string. Read-outs that look alike come from different tables or passages of the source.

One test concerns HCT116 cells. Nature of the test: Mitotic arrest assay on HCT116 cells (phospho-histone H3 Ser10). It is filed as cell-based, human. Particulars: Homo sapiens, HCT-116, HCT116 cells; lowest active dose; read-out: Mitotic arrest HCT116 LAD (converted). An outline of the steps: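 Read-out is imaging of phospho-histone H3 Ser10 (Alexa Fluor 488) with Hoechst nuclear counting, after 6 h compound exposure at 37 °C, DMSO ≤0.1%. LAD is the lowest dose at which the blank-corrected value over SD exceeds 5; triplicates, low-count wells excluded.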

The test system of another test is PC-3 cells. The test can be described thus: Antiproliferative activity, Alamar Blue assay, PC-3 cells. The test is classed as cell-based, human. Particulars: Homo sapiens, PC-3, PC3 cells, read-out: PC3 antiproliferative activity pIC50 (converted). An outline of the steps:
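Resazurin-based fluorescence (540 nm ex/590 nm em) measured after 4-day compound treatment plus 24 hrs dye incubation at 37° C. Cells plated at 4.5×10^3 cells/ml, adhered 24 hr first. pIC50 from probit-derived IC50 on % viable cells versus untreated, triplicate wells.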

For the molecule `CCc1cc2ccc(C(C)(C#N)Cc3csc(C)n3)cc2[nH]c1=O` (stereo not shown) [Compound 86], in the test on HCT116 cells, the minimal effective concentration was 1 µM. The IC50 in the test on PC-3 cells is 6310 nM.

As for `CCc1cc2ccc(C(C)(C#N)Cc3cccc(C#C[Si](C)(C)C)c3)cc2[nH]c1=O` (stereo not shown) [Compound 1], in the test with HCT116 cells, the minimal effective concentration is 1 µM. Moreover, in the test with PC-3 cells (Alamar Blue), the IC50 is 631 nM.

For the molecule `Cc1cc2ccc(C(C)(C#N)Cc3noc(-c4cccc(C(F)(F)F)c4)n3)cc2[nH]c1=O` (stereo not shown) [Compound 70], the minimal effective concentration with HCT116 cells is 1 µM. For the same molecule, the IC50 with PC-3 cells was 2510 nM.

Take `CCc1cc2ccc(C(C)(C#N)Cc3cccc(Br)c3)cc2[nH]c1=O` (stereo not shown) [Compound 49]: in the test on HCT116 cells, the minimal effective concentration was 0.1 µM. Moreover, in the test with PC-3 cells, the IC50 is 158 nM.

Consider `CCc1cc2ccc(C(C)(C#N)Cc3cccc(C#N)c3)cc2[nH]c1=O` (stereo not shown) [Compound 51], for which the minimal effective concentration in the test on HCT116 cells was 0.1 µM. In addition, in the test on PC-3 cells, the IC50 is 200 nM.

As to `CCc1cc2ccc(C(C)(C#N)Cc3cccnc3)cc2[nH]c1=O` (stereo not shown) [Compound 97], in the test on HCT116 cells, the minimal effective concentration was 3.16 µM. The IC50 with PC-3 cells is > 10000 nM.

Turning to `CCc1cc2ccc([C@](C)(C#N)Cc3ccccc3)cc2[nH]c1=O` (single isomer, unassigned) [Compound 45], the minimal effective concentration in the test on HCT116 cells was > 10 µM. For the same molecule, in the test with PC-3 cells, the IC50 was > 10000 nM.

As to `CCc1cc2ccc(C(C)(C#N)CCOc3cc(Cl)c(Cl)cc3Cl)cc2[nH]c1=O` (stereo not shown) [Compound 277], the minimal effective concentration in the test on HCT116 cells was 0.3 µM. For the same molecule, the IC50 in the test on PC-3 cells (Alamar Blue) was 501 nM.

For `CCc1cc2ccc([C@@](C)(C#N)Cc3nc(OC)cc(OC)n3)cc2[nH]c1=O` (single isomer, unassigned) [Compound 53], in the test with HCT116 cells, the minimal effective concentration was 0.02 µM. The IC50 in the test on PC-3 cells (Alamar Blue) was 39.8 nM.

For `CCc1cc2ccc(C(C)(C#N)Cc3cccc(CN4CCN(C)CC4)c3)cc2[nH]c1=O` (stereo not shown) [Compound 57], the minimal effective concentration in the test on HCT116 cells was > 10 µM. Moreover, the IC50 with PC-3 cells is > 10000 nM.

Regarding `CCc1cc2ccc(C(C)(C#N)Cc3nc(OC)cc(OC)n3)cc2[nH]c1=O` (stereo not shown) [Compound 43], the minimal effective concentration with HCT116 cells was 0.0316 µM. Further, the IC50 in the test on PC-3 cells was 158 nM.

Take `CCc1cc2ccc(C(C)(C#N)Cc3cc(C)ccc3C)cc2[nH]c1=O` (stereo not shown) [Compound 78]: the minimal effective concentration in the test on HCT116 cells is 0.1 µM. Further, the IC50 with PC-3 cells is 398 nM.

`CCc1cc2ccc(C(C)(C#N)CCOc3ccc([N+](=O)[O-])cc3)cc2[nH]c1=O` (stereo not shown) [Compound 54]: the minimal effective concentration with HCT116 cells was 0.1 µM. Moreover, the IC50 with PC-3 cells was 794 nM.

Consider `CCc1cc2ccc(C(C)(C#N)Cc3c(C)c(C)c(C)c(C)c3C)cc2[nH]c1=O` (stereo not shown) [Compound 89], for which the minimal effective concentration in the test with HCT116 cells is 3.16 µM. Besides, the IC50 in the test on PC-3 cells is > 10000 nM.

Regarding `CCc1cc2ccc(C(C)(C#N)Cc3nnsc3Cl)cc2[nH]c1=O` (stereo not shown) [Compound 42], in the test with HCT116 cells, the minimal effective concentration was 0.1 µM. Besides, in the test with PC-3 cells, the IC50 is 316 nM.

In the case of `CCc1cc2ccc([C@@](C)(C#N)Cc3ccccc3)cc2[nH]c1=O` (single isomer, unassigned) [Compound 46], the minimal effective concentration in the test with HCT116 cells was 0.316 µM. Also, the IC50 in the test on PC-3 cells is 398 nM.

In the case of `CCc1cc2ccc(C(C)(C#N)Cc3cccc(CN4CCOCC4)c3)cc2[nH]c1=O` (stereo not shown) [Compound 58], in the test on HCT116 cells, the minimal effective concentration was 3.16 µM. In the test with PC-3 cells, the IC50 was 2000 nM.

For `CCc1cc2ccc(C(C)(C#N)Cc3ccc(F)c(C)c3)cc2[nH]c1=O` (stereo not shown) [Compound 79], in the test with HCT116 cells, the minimal effective concentration is 0.316 µM. Also, the IC50 with PC-3 cells is 794 nM.

For the molecule `CCc1cc2ccc(C(C)(C#N)Cc3ccc(Cl)c(C(F)(F)F)c3)cc2[nH]c1=O` (stereo not shown) [Compound 82], the minimal effective concentration in the test on HCT116 cells is 0.1 µM. Further, the IC50 in the test on PC-3 cells is 631 nM.

As for `CCc1cc2ccc(C(C)(C#N)Cc3cccc(OCCCN4CCOCC4)c3)cc2[nH]c1=O` (stereo not shown) [Compound 68], in the test with HCT116 cells, the minimal effective concentration is 10 µM. In the test on PC-3 cells, the IC50 is 7940 nM.
